{
  "source": "patent US20090270342A1",
  "about": "“IMMUNOREGULATORY AGENT” (priority 2006, published 2009)",
  "key": {"[1]": {"test_system": "cedar- and Japanese cypress-pollen disease", "experiment": "Clinical symptom scores in cedar- and Japanese cypress-pollen allergy, double blind test (Experiment 8)", "format": "in vivo, human", "protocol": "In Experiments 4 to 7, it was confirmed that the production of IgE and cytokines, which involves in allergic symptoms, is suppressed by ingesting lactosucrose. Based on the results, an experiment for investigating the suppressing effect of lactosucrose on the clinical symptoms caused by ceder- and Japanese cypress-pollen was carried out as follows. Volunteers who had been self-diagnosed to have allergic symptoms of nose or eyes at a season of cedar- and Japanese cypress-pollen (February to May) in the past two to three years, were recruited as subjects. An interview about the clinical symptoms of nose and eyes for the past two to three years was carried out to the applied volunteers with referencing a guideline for the diagnosis of pollinosis, “HANA ALLERGY SHINDAN GUIDELINE—TUNENSEI BIEN TO KAFUNSHO—2005 NENDO-BAN (Guideline for the diagnosis of nose allergy—chronic allergic rhinitis and pollinosis 2005 edition)”, edited by the committee for the guideline for the diagnosis of nose allergy, published by Life Science pp. 20-24 (2006). Based on the results, 40 persons estimated to be cedar- and Japanese cypress-pollen disease were selected as subjects. The subjects were divided into two groups, a test group ingesting lactosucrose (ingesting 3 g of lactosucrose every day) and a control group ingesting placebo, regarding with a score of clinical symptoms of the subjects. Then, “NYU-KA OLIGO 700”, a 76% (w/w)-solid content syrup, comprising lactosucrose, commercialized by Hayashibara Shoji Inc., Okayama, Japan, which comprises 71.5% (w/w) of lactosucrose, 13.7% (w/w) of sucrose, 7.5% (w/w) of lactose, and 7.3% (w/w) of other saccharides, on a dry solid basis, was repackaged into aluminum pillowcases with about 6 g/package (3 g of lactosucrose/package) and the resulting packages were distributed to the subjects of the lactosucrose-ingesting group. In the same manner, “CORN SUGAR A-33”, an about 75% (w/w)-solid content isomerized sugar syrup comprising sucrose, commercialized by Sanwa Cornstarch Co., Ltd., Nara, Japan, which comprises 33.5% (w/w) of sucrose, 33.7% (w/w) of glucose, and 29.2% (w/w) of fructose, on a dry solid basis, was repackaged into packages with about 6 g/package similarly as in the above and distributed to the subjects of the placebo-ingesting group. The ingestion was started at Jan. 16, 2007 (zero week), before the beginning of cedar-pollen season, and then subjects were allowed to ingest one package of the test substance at any time every day for 18 weeks. The methods for ingesting the test substance were not restricted and the subjects were permitted to ingest directly from the package or after mixing with other foods and beverages. The experiment was carried out with double blind test and the subjects were not restricted except for ingesting the test substance and were allowed to take medicines including an anti-allergic agent. For evaluating the suppression of allergic symptoms by ingesting the test substance, questionnaire survey was carried out to subjects about clinical symptoms of nose and eyes and difficulties on daily life once per week for 21 weeks, from one week before from starting the ingestion of the test substance to two weeks after of the end of the ingestion. The first questionnaire survey was carried out […]. Based on the respective result of the questionnaire of the group ingesting lactosucrose and the control group, the effects were evaluated by scores determined with regarding the suppressive effect on allergic symptoms of medicines such as an anti-allergic agent used during the test period. […] 9, 2007; the beginning of March; and the end of March; respectively, in the test area, the southern part of Okayama Prefecture. […] 27, 2007; and the end of April in the test area. Accordingly, the ingestion of the test substance in the experiment was started about three weeks before the cedar pollen season. […]"}, "[2]": {"conditions": "in vivo; cited from earlier work"}, "[3]": {"test_system": "IgA and IgG in cecal content", "experiment": "pH, weight, IgA and IgG of cecal content (Experiment 2)", "format": "in vivo, mice", "conditions": "Lactosucrose 5% (w/w) diet, four weeks", "protocol": "The effect of lactosucrose on the enhancement of gut immunity was investigated by measuring the amounts of IgA and IgG in cecal content. Mice reared for four weeks on the test diet comprising 5% (w/w) of lactosucrose or the control diet, “AIN-93G”, in Experiment 1 were sacrificed and the cecums were extirpated. Successively, the cecal content in each mouse was collected from the cecum and the pH, weight, the amounts of IgA and IgG were measured. The amounts of IgA and IgG were determined by ELISA using an anti-IgA antibody and that using an anti-IgG antibody (Mouse IgG ELISA Quantitation Kit produced by Bethyl Laboratories, Inc., Texas, USA), and expressed by mg/g-cecal content and ng/g-cecal content, respectively. The percentages in parentheses in Table 2 mean the relative values to those of the control."}, "[4]": {"conditions": "3 g of lactosucrose every day, after the start of ingesting the test substance"}},
  "data": [
    {"compound": "OC[C@H]1O[C@@H](O[C@H]2[C@H](O)[C@@H](O)[C@@H](O[C@]3(CO)O[C@H](CO)[C@@H](O)[C@@H]3O)O[C@@H]2CO)[C@H](O)[C@@H](O)[C@H]1O", "note": "[Lactosucrose, β-D-galactosyl-(1,4)-α-D-glucosyl-(1,2)-β-D-fructoside]", "values": [
      {"measurement": "Generation of clinical symptoms and difficulties on daily life in comparison with the control group", "setting": "[1]; 3 g of lactosucrose every day (NYU-KA OLIGO 700), 18 weeks, human pollinosis subjects", "value": "delayed by one week"},
      {"measurement": "Score of clinical symptoms of nose compared with the control group", "setting": "[1]; 3 g of lactosucrose every day, 18 weeks, FIG. 1", "value": "kept lower value than those of the control group during four to 10 weeks"},
      {"measurement": "Score of clinical symptoms of eyes compared with the control group", "setting": "[1]; 3 g of lactosucrose every day, 18 weeks, FIG. 2", "value": "lower than those of the control group though the test period"},
      {"measurement": "Score of difficulties on daily life compared with the control group", "setting": "[1]; 3 g of lactosucrose every day, 18 weeks, FIG. 3", "value": "lower than those of the control group though the test period"},
      {"measurement": "Time at which the score of clinical symptoms of eyes reached a peak", "setting": "[1]; [4]", "value": "eight weeks"},
      {"measurement": "Time at which the score of clinical symptoms of nose reached a peak", "setting": "[1]; [4]", "value": "seven weeks"},
      {"measurement": "Time at which the score of difficulties on daily life reached a peak", "setting": "[1]; [4]", "value": "seven weeks"},
      {"measurement": "Effect of a dose higher than the maximum dose without harmful effect", "setting": "[2]", "value": "causes diarrhea"},
      {"measurement": "Maximum dose of lactosucrose without harmful effect", "setting": "[2]", "value": "0.6-0.8 g/kg-body weight"},
      {"measurement": "IgA in cecal content", "setting": "[3]", "value": "5.6 ± 1.6", "unit": "mg/g"},
      {"measurement": "IgA in cecal content, relative value to control", "setting": "[3]", "value": "(982%)"},
      {"measurement": "IgG in cecal content", "setting": "[3]", "value": "140 ± 54", "unit": "ng/g"},
      {"measurement": "IgG in cecal content, relative value to control", "setting": "[3]", "value": "(117%)"},
      {"measurement": "Weight of cecal content", "setting": "[3]", "value": "0.22 ± 0.051", "unit": "g"},
      {"measurement": "Weight of cecal content, relative value to control", "setting": "[3]", "value": "(169%)"},
      {"measurement": "pH of cecal content", "setting": "[3]", "value": "6.63 ± 0.27"},
      {"measurement": "Increase of the amount of secreted IgA in cecal content", "setting": "[3]; versus control", "value": "about 10 folds"}
    ]}
  ]
}
